Laboratory results taken from ChEMBL document CHEMBL4011630 (J Med Chem, 2017).
Where a SMILES comes first, the peptide text is derived from it. Bridges are numbered along the chain shown (N, C = ends). [ ]: non-standard residue; d: D form. hMet = CSCCC[C@H](N)C(=O)O

What was measured:
[1] = target: T1, Nicotinic acetylcholine receptor alpha6/alpha3/beta4 (Rattus norvegicus, UniProt P04757+P12392+P43143); assay: Antagonist activity at rat alpha6/alpha3beta4 nACHR expressed in xenopous laevis oocyte assessed as inhibition of ACh induced channel current after 5 mins at -70 mV holding potential by two electrode voltage clamp method
[2] = target: T2, Neuronal acetylcholine receptor; alpha3/beta4 (Rattus norvegicus, UniProt P04757+P12392); assay: Antagonist activity at rat alpha3beta4 nACHR expressed in xenopous laevis oocyte assessed as inhibition of ACh induced channel current after 5 mins at -70 mV holding potential by two electrode voltage clamp method
[3] = target: T2, Neuronal acetylcholine receptor; alpha3/beta4; assay: Antagonist activity at rat alpha3beta4 nACHR expressed in xenopous laevis oocyte assessed as inhibition of ACh induced channel current after 6 to 10 mins at -70 mV holding potential by two electrode voltage clamp method
[4] = target: T1, Nicotinic acetylcholine receptor alpha6/alpha3/beta4; assay: Antagonist activity at rat alpha6/alpha3beta4 nACHR expressed in xenopous laevis oocyte assessed as inhibition of ACh induced channel current after 6 to 10 mins at -70 mV holding potential by two electrode voltage clamp method
Rattus norvegicus = species: Rattus norvegicus; assay: Selectivity ratio of IC50 for rat alpha6/alpha3beta4 nACHR expressed in xenopous laevis oocyte after 6 to 10 mins to IC50 for rat alpha3beta4 nACHR expressed in xenopous laevis oocyte after 6 to 10 mins

T2 sequence (P04757 whole entry): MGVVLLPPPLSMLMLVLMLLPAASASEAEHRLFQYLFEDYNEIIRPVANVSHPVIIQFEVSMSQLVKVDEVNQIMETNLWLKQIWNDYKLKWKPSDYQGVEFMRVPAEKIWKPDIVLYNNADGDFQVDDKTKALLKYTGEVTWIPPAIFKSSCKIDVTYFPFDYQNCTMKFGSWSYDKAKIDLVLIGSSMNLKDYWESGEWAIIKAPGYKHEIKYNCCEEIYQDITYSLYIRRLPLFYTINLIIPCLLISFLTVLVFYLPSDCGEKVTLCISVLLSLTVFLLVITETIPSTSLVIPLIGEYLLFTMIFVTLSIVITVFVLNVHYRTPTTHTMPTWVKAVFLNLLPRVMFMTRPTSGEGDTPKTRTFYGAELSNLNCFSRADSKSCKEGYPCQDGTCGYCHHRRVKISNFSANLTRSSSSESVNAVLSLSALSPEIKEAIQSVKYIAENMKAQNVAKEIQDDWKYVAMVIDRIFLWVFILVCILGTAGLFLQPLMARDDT
T2 sequence (P12392 whole entry): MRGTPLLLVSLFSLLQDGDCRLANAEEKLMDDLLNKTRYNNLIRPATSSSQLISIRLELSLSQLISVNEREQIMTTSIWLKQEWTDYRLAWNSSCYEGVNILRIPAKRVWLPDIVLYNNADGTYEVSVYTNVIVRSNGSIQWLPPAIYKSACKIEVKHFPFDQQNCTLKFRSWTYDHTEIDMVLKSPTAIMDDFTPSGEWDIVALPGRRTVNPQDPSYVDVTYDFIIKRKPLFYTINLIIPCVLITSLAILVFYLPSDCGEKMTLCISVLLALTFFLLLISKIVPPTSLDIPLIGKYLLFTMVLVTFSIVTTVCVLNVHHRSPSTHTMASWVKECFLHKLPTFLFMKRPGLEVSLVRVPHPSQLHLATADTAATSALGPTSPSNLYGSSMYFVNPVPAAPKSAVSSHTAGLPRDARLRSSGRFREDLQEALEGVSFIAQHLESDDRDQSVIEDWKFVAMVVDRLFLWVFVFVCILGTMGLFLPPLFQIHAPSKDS
T1 sequence (P04757 whole entry): as the sequence (P04757 whole entry) above
T1 sequence (P12392 whole entry): as the sequence (P12392 whole entry) above
T1 sequence (P43143 whole entry): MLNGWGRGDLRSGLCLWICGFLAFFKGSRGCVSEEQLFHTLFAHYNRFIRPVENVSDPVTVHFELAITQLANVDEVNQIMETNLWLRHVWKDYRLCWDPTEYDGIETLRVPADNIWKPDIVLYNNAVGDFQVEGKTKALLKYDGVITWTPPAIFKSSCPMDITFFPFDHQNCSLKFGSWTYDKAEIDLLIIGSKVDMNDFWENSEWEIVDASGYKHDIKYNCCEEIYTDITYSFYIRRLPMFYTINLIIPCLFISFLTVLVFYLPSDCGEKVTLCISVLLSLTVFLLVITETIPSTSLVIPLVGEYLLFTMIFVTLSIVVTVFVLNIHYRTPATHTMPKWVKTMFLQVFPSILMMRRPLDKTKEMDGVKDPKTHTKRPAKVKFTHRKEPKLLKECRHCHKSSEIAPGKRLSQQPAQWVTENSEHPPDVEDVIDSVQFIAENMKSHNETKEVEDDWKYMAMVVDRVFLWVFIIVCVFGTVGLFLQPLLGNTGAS

SMILES | IC50 [1] [nM] | IC50 [2] [nM] | IC50 [3] [nM] | IC50 [4] [nM] | Ratio IC50 (Rattus norvegicus)
CC[C@H](C)[C@@H]1NC(=O)[C@@H]2CCCN2C(=O)[C@H](CO)NC(=O)[C@H](CCCSC)NC(=O)[C@H](C)NC(=O)[C@H](CO)NC(=O)[C@@H]2CSSC[C@H](NC(=O)CN)C(=O)N[C@@H](CSSC[C@@H](C(N)=O)NC1=O)C(=O)N[C@@H](CO)C(=O)N[C@@H](Cc1cnc[nH]1)C(=O)N1CCC[C@H]1C(=O)N[C@@H](C)C(=O)N2 (H-GCCSHPACSA[hMet]SPIC-NH2; disulfide 2-8, 3-15) | > 10000 | > 10000 |  |  | 
CC[C@H](C)[C@@H]1NC(=O)[C@H](C)NC(=O)[C@H](C)NC(=O)[C@@H]2CSSC[C@H](NC(=O)CN)C(=O)N[C@@H](CSSC[C@@H](C(N)=O)NC(=O)[C@H]([C@@H](C)CC)NC(=O)[C@@H]3CCCN3C(=O)[C@H](CO)NC1=O)C(=O)N[C@@H](CO)C(=O)N[C@@H](Cc1cnc[nH]1)C(=O)N1CCC[C@H]1C(=O)N[C@@H](C(C)C)C(=O)N2 (H-GCCSHPVCAAISPIC-NH2; disulfide 2-8, 3-15) | 101 | 30.7 |  |  | 
CC[C@H](C)[C@@H]1NC(=O)[C@@H]2CCCN2C(=O)[C@H](C)NC(=O)[C@H](CCCSC)NC(=O)[C@H](C)NC(=O)[C@H](CO)NC(=O)[C@@H]2CSSC[C@H](NC(=O)CN)C(=O)N[C@@H](CSSC[C@@H](C(N)=O)NC1=O)C(=O)N[C@@H](CO)C(=O)N[C@@H](Cc1cnc[nH]1)C(=O)N1CCC[C@H]1C(=O)N[C@@H](C(C)C)C(=O)N2 (H-GCCSHPVCSA[hMet]APIC-NH2; disulfide 2-8, 3-15) | 39.3 | 17.4 |  |  | 
CC[C@H](C)[C@@H]1NC(=O)[C@H](CCC(N)=O)NC(=O)[C@@H]2CCCN2C(=O)[C@H](CC(N)=O)NC(=O)[C@H](Cc2cnc[nH]2)NC(=O)[C@H](C(C)C)NC(=O)[C@H]([C@@H](C)O)NC(=O)[C@@H]2CSSC[C@H](NC(=O)[C@@H]3CCCN3C(=O)[C@H](CC(=O)O)NC(=O)[C@@H](N)CCCN=C(N)N)C(=O)N[C@@H](CSSC[C@@H](C(N)=O)NC1=O)C(=O)N[C@@H](CO)C(=O)N[C@@H](CC(N)=O)C(=O)N1CCC[C@H]1C(=O)N[C@@H](C(C)C)C(=O)N2 (H-RDPCCSNPVCTVHNPQIC-NH2; disulfide 4-10, 5-18) |  |  | 518 | 30 | 
CC[C@H](C)[C@@H]1NC(=O)[C@H](CCC(N)=O)NC(=O)[C@@H]2CCCN2C(=O)[C@H](CC(N)=O)NC(=O)[C@H](Cc2cnc[nH]2)NC(=O)[C@H](C(C)C)NC(=O)[C@H]([C@@H](C)O)NC(=O)[C@@H]2CSSC[C@H](NC(=O)[C@@H]3CCCN3C(=O)[C@H](CC(=O)O)NC(=O)[C@@H](N)CCCNC(=N)N)C(=O)N[C@@H](CSSC[C@@H](C(N)=O)NC1=O)C(=O)N[C@@H](CO)C(=O)N[C@@H](CC(N)=O)C(=O)N1CCC[C@H]1C(=O)N[C@@H](C(C)C)C(=O)N2 (H-RDPCCSNPVCTVHNPQIC-NH2; disulfide 4-10, 5-18) |  |  |  |  | 0.058
